In patent US20230339889A1, “DERIVATIVES OF 2-OXO-N-(4-(PYRIMIDIN-4-YLOXY/THIO)PHENYL)-1,2-DIHYDROPYRIDINE-3-CARBOXAMIDE FOR USE AS PROTEIN KINASE INHIBITORS FOR THERAPY” (AUCENTRA THERAPEUTICS PTY LTD, priority 2020, published 2023):

How the values were obtained:
AXL = molecular target: T1, AXL (Homo sapiens, UniProt P30530); experiment: Filter-binding radiometric kinase activity assay (KinaseProfiler, Eurofins); format: biochemical; details: 1 µM compound; read-out: % Residual enzymatic activity at 1 µM AXL
T1 construct: purchased Eurofins Discovery (Kinase Profiler service)
T1 sequence (P30530 26-894): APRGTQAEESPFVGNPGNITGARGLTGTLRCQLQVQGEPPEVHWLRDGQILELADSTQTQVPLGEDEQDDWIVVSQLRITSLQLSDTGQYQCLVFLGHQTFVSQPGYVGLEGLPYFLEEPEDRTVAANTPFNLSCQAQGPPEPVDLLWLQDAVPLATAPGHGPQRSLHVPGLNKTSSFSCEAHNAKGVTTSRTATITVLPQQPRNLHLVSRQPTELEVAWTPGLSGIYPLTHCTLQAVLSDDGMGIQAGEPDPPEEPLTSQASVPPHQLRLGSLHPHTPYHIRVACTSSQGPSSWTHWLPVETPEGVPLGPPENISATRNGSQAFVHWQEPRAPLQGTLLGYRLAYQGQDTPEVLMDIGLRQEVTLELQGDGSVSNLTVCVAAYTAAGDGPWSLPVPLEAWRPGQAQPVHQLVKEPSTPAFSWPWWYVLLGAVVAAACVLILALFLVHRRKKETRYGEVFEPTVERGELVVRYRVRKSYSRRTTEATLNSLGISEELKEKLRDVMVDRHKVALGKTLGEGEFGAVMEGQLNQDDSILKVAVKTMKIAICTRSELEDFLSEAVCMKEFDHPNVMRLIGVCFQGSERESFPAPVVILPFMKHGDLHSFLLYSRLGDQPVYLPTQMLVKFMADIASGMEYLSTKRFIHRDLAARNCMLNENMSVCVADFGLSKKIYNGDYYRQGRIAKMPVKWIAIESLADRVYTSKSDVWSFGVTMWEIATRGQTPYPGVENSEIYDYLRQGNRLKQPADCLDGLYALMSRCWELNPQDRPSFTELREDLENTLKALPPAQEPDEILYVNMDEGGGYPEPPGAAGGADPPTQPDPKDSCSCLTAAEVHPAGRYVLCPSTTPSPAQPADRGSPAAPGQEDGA
Procedure: (§1) Filter-binding radiometric kinase activity assay (Kinase Profiler™) from Eurofins Discovery was used to determine the % of inhibition and/or IC50 values. […] The reaction is initiated by the addition of the Mg/ATP mixture. After incubation for 40 minutes at room temperature, the reaction is stopped by the addition of phosphoric acid to a concentration of 0.5%. 10 µL of the reaction is then spotted onto a P30 filter mat and washed four times for 4 minutes in 0.425% phosphoric acid and once in methanol prior to drying and scintillation counting. The IC50 values were derived by fitting a sigmoidal dose-response curve to a plot of assay readout over inhibitor concentration. All fits were computed with the GraphPad Prism Software (San Diego, CA, United States of America). Ki values were derived from IC5o values using Cheng Prusoff equation (Cheng Y et al., Biochem Pharmacol 22(23):3099-3108, 1973).

MET = molecular target: T2, MET (Homo sapiens, UniProt P08581); experiment: as above; format: biochemical; details: 1 µM compound; read-out: % Residual enzymatic activity at 1 µM MET
T2 construct: purchased Eurofins Discovery (Kinase Profiler service)
T2 sequence (P08581 25-1390): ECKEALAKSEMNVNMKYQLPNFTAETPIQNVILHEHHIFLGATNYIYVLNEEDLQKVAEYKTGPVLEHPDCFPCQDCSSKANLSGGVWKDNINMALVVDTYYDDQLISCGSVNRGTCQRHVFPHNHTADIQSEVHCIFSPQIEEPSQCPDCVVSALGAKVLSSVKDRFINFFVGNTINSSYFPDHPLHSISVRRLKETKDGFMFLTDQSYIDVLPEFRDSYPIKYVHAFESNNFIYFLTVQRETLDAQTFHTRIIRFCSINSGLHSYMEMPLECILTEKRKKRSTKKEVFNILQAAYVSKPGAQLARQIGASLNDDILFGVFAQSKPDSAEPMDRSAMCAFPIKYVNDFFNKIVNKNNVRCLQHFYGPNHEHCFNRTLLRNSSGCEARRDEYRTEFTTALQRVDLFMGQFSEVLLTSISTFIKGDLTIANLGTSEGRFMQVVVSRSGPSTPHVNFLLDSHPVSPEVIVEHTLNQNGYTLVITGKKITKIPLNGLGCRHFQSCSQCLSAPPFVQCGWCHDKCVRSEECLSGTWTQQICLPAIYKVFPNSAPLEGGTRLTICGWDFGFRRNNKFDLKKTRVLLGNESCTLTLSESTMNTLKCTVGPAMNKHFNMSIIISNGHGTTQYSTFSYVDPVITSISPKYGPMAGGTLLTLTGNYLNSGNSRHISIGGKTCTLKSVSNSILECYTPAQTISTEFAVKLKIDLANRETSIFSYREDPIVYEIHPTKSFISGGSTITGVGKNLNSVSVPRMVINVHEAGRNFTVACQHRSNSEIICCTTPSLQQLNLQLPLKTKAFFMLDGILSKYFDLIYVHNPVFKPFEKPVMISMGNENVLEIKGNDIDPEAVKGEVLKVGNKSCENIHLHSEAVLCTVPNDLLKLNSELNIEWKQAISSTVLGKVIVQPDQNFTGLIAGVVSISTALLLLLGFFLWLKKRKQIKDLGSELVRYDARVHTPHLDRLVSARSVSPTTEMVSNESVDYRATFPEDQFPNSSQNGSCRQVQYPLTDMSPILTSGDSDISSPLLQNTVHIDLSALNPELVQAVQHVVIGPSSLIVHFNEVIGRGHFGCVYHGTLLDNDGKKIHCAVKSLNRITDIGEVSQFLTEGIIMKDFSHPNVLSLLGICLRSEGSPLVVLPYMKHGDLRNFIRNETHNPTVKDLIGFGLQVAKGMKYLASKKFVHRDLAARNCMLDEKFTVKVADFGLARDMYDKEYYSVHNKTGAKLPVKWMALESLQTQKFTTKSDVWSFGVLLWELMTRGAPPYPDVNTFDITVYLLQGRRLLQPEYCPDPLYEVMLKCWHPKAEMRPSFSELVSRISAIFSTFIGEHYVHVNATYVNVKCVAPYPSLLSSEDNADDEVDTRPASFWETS
Procedure: as §1

Mer = molecular target: T3, Mer (Homo sapiens, UniProt Q12866); experiment: as above; format: biochemical; details: 1 µM compound; read-out: % Residual enzymatic activity at 1 µM Mer
T3 construct: purchased Eurofins Discovery (Kinase Profiler service)
T3 sequence (Q12866 21-999): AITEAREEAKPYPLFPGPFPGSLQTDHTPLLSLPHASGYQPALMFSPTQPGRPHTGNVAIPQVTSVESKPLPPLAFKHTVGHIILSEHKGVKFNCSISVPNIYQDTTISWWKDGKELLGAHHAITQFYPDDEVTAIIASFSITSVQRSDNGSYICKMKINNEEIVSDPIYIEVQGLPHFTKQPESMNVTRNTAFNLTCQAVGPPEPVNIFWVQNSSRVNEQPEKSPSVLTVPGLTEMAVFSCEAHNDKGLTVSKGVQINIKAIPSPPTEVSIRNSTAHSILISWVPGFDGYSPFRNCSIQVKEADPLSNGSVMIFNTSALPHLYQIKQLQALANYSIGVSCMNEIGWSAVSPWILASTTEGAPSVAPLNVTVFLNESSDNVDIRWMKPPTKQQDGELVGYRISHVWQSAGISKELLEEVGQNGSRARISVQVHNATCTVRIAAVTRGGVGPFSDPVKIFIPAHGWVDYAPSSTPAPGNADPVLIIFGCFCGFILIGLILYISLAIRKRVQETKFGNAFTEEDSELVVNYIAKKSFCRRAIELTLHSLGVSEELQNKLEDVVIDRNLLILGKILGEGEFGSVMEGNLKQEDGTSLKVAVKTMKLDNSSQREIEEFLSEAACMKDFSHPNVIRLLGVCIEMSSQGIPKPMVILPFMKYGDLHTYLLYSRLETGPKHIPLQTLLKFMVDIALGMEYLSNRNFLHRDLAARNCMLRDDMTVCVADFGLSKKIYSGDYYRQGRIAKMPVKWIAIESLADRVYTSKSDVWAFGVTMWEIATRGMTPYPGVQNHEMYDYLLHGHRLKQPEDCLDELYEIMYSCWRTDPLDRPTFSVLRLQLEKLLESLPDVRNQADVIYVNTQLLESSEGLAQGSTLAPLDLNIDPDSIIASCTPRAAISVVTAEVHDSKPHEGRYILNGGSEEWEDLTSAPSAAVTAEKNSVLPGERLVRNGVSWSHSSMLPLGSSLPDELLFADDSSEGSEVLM
Procedure: as §1

CDK2E = CDK2E (Homo sapiens, UniProt P24941); experiment: ADP Glo Kinase assay; format: biochemical; details: 1 µM compound; read-out: % Residual enzymatic activity at 1 µM CDK2E
Procedure: Inhibition of CDKs and FLT3 were determined using ADP Glo Kinase assays, as previously described in International Patent Publication No WO 2017/020065.

MV4-11 = experiment: Proliferation assay (MTT, leukaemia cancer cell line); format: cell-based; details: Homo sapiens; 1 µM compound, MV4-11 cells
From the text: Compounds from Example 1 were subjected to standard resazurin and MTT assays on solid tumour and leukaemia cancer cell lines, respectively, as previously reported (Wang S et al., J Med Chem 47:1662-1675, 2004 and Diab S et al., CheMedChem 9:962-972, 2014).

TYRO3 = molecular target: T4, TYRO3 (Homo sapiens, UniProt Q06418); experiment: Filter-binding radiometric kinase activity assay (KinaseProfiler, Eurofins); format: biochemical; details: 1 µM compound; read-out: % Residual enzymatic activity at 1 µM TYRO3
T4 construct: purchased Eurofins Discovery (Kinase Profiler service)
T4 sequence (Q06418 41-890): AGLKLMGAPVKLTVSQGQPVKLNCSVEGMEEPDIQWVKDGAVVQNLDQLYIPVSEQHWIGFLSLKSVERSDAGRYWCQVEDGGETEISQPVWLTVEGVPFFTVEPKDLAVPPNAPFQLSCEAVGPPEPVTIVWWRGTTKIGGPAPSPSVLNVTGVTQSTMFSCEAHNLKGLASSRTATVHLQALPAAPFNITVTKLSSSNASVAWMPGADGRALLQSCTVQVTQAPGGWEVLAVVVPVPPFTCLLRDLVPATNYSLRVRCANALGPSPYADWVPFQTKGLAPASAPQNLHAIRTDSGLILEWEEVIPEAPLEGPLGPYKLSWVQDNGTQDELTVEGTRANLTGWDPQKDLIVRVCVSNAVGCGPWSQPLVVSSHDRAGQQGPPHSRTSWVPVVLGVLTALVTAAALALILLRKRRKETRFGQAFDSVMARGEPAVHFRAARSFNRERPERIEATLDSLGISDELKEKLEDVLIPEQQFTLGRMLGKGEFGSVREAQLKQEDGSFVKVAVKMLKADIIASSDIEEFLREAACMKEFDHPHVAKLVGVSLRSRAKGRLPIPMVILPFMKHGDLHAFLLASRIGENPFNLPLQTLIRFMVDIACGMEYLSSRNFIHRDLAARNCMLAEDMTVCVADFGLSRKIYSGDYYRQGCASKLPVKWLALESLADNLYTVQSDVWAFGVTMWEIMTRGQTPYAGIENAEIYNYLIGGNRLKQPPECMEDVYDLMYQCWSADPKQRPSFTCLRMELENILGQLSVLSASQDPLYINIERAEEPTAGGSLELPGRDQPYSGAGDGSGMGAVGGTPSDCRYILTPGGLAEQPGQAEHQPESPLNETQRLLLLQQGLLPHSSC
Procedure: as §1

| Compound | remaining activity at 1 µM (AXL) [%] | remaining activity at 1 µM (MET) [%] | remaining activity at 1 µM (Mer) [%] | remaining activity at 1 µM (CDK2E) [%] | remaining activity at 1 µM (TYRO3) [%] | activity at 1 µM (MV4-11) [%] |
| --- | --- | --- | --- | --- | --- | --- |
| Nc1ncnc(Sc2ccc(NC(=O)c3cccn(-c4ccc(F)cc4)c3=O)cc2F)c1F [Cmpd 19, N-(4-((6-amino-5-fluoropyrimidin-4-yl)thio)-3-fluorophenyl)-1-(4-fluorophenyl)-2-oxo-1,2-dihydropyridine-3-carboxamide] | 84 | 78 | 99 | 93 | 89 | 6 |
| Nc1ncc(Cl)c(Oc2ccc(NC(=O)c3cccn(-c4ccc(F)cc4)c3=O)cc2F)n1 [Cmpd 24, N-(4-((2-amino-5-chloropyrimidin-4-yl)oxy)-3-fluorophenyl)-1-(4-fluorophenyl)-2-oxo-1,2-dihydropyridine-3-carboxamide] | 99 | 74 | 87 |  | 94 | 27 |
| Nc1ncc(Cl)c(Oc2ccc(NC(=O)c3cccn(-c4ccc(F)cc4)c3=O)c(F)c2)n1 [Cmpd 25, N-(4-((2-amino-5-chloropyrimidin-4-yl)oxy)-2-fluorophenyl)-1-(4-fluorophenyl)-2-oxo-1,2-dihydropyridine-3-carboxamide] | 92 | 87 | 88 |  | 89 | 65 |
| Cc1ccc(-n2cccc(C(=O)Nc3ccc(Oc4ncnc(N)c4Cl)cc3F)c2=O)cc1 [Cmpd 15, N-(4-((6-amino-5-chloropyrimidin-4-yl)oxy)-2-fluorophenyl)-2-oxo-1-(p-tolyl)-1,2-dihydropyridine-3-carboxamide] | 64 | 74 | 99 |  | 39 | 26 |
| Nc1ncnc(Sc2ccc(NC(=O)c3cccn(-c4ccc(F)cc4)c3=O)cc2F)c1Cl [Cmpd 17, N-(4-((6-amino-5-chloropyrimidin-4-yl)thio)-3-fluorophenyl)-1-(4-fluorophenyl)-2-oxo-1,2-dihydropyridine-3-carboxamide] | 55 | 65 | 81 | 101 | 52 | 4 |

The next lines start with results.

| remaining activity at 1 µM (AXL) [%] | remaining activity at 1 µM (MET) [%] | remaining activity at 1 µM (Mer) [%] | remaining activity at 1 µM (CDK2E) [%] | remaining activity at 1 µM (TYRO3) [%] | Compound | activity at 1 µM (MV4-11) [%] |
| --- | --- | --- | --- | --- | --- | --- |
| 87 | 70 | 82 | 88 |  | Nc1ncnc(Sc2ccc(NC(=O)c3cccn(-c4ccc(F)cc4)c3=O)c(F)c2)c1Cl [Cmpd 39, N-(4-((6-amino-5-chloropyrimidin-4-yl)thio)-2-fluorophenyl)-1-(4-fluorophenyl)-2-oxo-1,2-dihydropyridine-3-carboxamide] | 4 |
| 50 | 91 | 103 | 97 | 69 | Nc1ncnc(Oc2ccc(NC(=O)c3cccn(-c4ccc(Cl)cc4)c3=O)cc2F)c1F [Cmpd 34, N-(4-((6-amino-5-fluoropyrimidin-4-yl)oxy)-3-fluorophenyl)-1-(4-chlorophenyl)-2-oxo-1,2-dihydropyridine-3-carboxamide] | 3 |
| 97 | 87 | 99 | 96 | 70 | Nc1ncnc(Nc2ccc(NC(=O)c3cccn(-c4ccc(F)cc4)c3=O)cc2F)c1Cl [Cmpd 36, N-(4-((6-amino-5-chloropyrimidin-4-yl)amino)-3-fluorophenyl)-1-(4-fluorophenyl)-2-oxo-1,2-dihydropyridine-3-carboxamide] | 4 |
| 23 | 10 | 74 | 82 | 6 | Nc1ncnc(Oc2ccc(NC(=O)c3cccn(-c4ccc(Cl)cc4)c3=O)c(F)c2)c1Cl [Cmpd 33, N-(4-((6-amino-5-chloropyrimidin-4-yl)oxy)-2-fluorophenyl)-1-(4-chlorophenyl)-2-oxo-1,2-dihydropyridine-3-carboxamide] | 1 |
